Source: ChEMBL document CHEMBL1131642, “Synthesis and antibacterial activity of O-methyl derivatives of azalide antibiotics: I. 4", 11 and 12-OMe derivatives via direct methylation” (1998)
Converted amounts (≈) assume the structure as drawn.

Experiments:
Type in all cases: functional
[1] = system: Bacillus subtilis; test: Minimum inhibitory concentration against macrolide susceptible strains of Bacillus subtilis (MB5586)
[2] = system: Enterococcus faecalis; test: Minimum inhibitory concentration against macrolide susceptible strain of Enterococcus faecalis (MB5407)
[3] = system: Streptococcus pyogenes; test: Minimum inhibitory concentration against macrolide susceptible strain of Streptococcus pyogenes (MB2874)
[4] = system: Staphylococcus aureus; test: Minimum inhibitory concentration against macrolide susceptible strain of Staphylococcus aureus (MB2865)
[5] = system: Streptococcus pneumoniae; test: Minimum inhibitory concentration against macrolide susceptible strain of Streptococcus pneumoniae (MB3957)
[6] = system: Enterococcus faecium; test: Minimum inhibitory concentration against macrolide susceptible strain of Enterococcus faecium (MB5516)

Structure (SMILES)	MIC [1] [µg/mL]	MIC [2] [µg/mL]	MIC [3] [µg/mL]	MIC [4] [µg/mL]	MIC [5] [µg/mL]	MIC [6] [µg/mL]
CC[C@H]1OC(=O)[C@H](C)[C@@H](O[C@H]2C[C@@](C)(OC)[C@@H](OC)[C@@H](C)O2)[C@H](C)[C@@H](O[C@@H]2O[C@H](C)C[C@@H](N(C)C)[C@H]2O)[C@](C)(O)C[C@@H](C)N(C)C[C@H](C)[C@@H](O)[C@]1(C)OC	4 (≈ 5.15 µM)	16 (≈ 20.6 µM)	0.25 (≈ 0.322 µM)	8 (≈ 10.3 µM)	1 (≈ 1.29 µM)	4 (≈ 5.15 µM)
CC[C@H]1OC(=O)[C@H](C)[C@@H](O[C@H]2C[C@@](C)(OC)[C@@H](O)[C@@H](C)O2)[C@H](C)[C@@H](O[C@@H]2O[C@H](C)C[C@@H](N(C)C)[C@H]2O)[C@](C)(O)C[C@@H](C)CN(C)[C@H](C)[C@@H](OC)[C@]1(C)OC	4 (≈ 5.15 µM)	16 (≈ 20.6 µM)	0.12 (≈ 0.154 µM)	8 (≈ 10.3 µM)	1 (≈ 1.29 µM)	2 (≈ 2.57 µM)
CC[C@H]1OC(=O)[C@H](C)[C@@H](O[C@H]2C[C@@](C)(OC)[C@@H](O)[C@@H](C)O2)[C@H](C)[C@@H](O[C@@H]2O[C@H](C)C[C@@H](N(C)C)[C@H]2O)[C@](C)(O)C[C@@H](C)CN(C)[C@H](C)[C@@H](OC)[C@]1(C)O	1 (≈ 1.31 µM)	8 (≈ 10.5 µM)	0.03 (≈ 0.0393 µM)	1 (≈ 1.31 µM)	0.03 (≈ 0.0393 µM)	0.5 (≈ 0.655 µM)
CC[C@H]1OC(=O)[C@H](C)[C@@H](O[C@H]2C[C@@](C)(OC)[C@H](O)[C@H](C)O2)[C@H](C)[C@@H](O[C@@H]2O[C@H](C)C[C@H](N(C)C)[C@H]2O)[C@](C)(O)C[C@@H](C)N(C)C[C@H](C)[C@@H](O)[C@]1(C)O	0.3 (≈ 0.401 µM)	2 (≈ 2.67 µM)	< 0.06	0.3 (≈ 0.401 µM)	< 0.06	0.125 (≈ 0.167 µM)
CC[C@H]1OC(=O)[C@H](C)[C@@H](O[C@H]2C[C@@](C)(OC)[C@@H](OC)[C@@H](C)O2)[C@H](C)[C@@H](O[C@@H]2O[C@H](C)C[C@@H](N(C)C)[C@H]2O)[C@](C)(O)C[C@@H](C)N(C)C[C@H](C)[C@@H](OC)[C@]1(C)O	16 (≈ 20.6 µM)	32 (≈ 41.2 µM)	0.5 (≈ 0.643 µM)	32 (≈ 41.2 µM)	2 (≈ 2.57 µM)	16 (≈ 20.6 µM)
CC[C@H]1OC(=O)[C@H](C)[C@@H](O[C@H]2C[C@@](C)(OC)[C@@H](O)[C@H](C)O2)[C@H](C)[C@@H](O[C@@H]2O[C@H](C)C[C@H](N(C)C)[C@H]2O)[C@](C)(O)C[C@@H](C)CN(C)[C@H](C)[C@@H](O)[C@]1(C)O [AZITHROMYCIN]	1 (≈ 1.34 µM)	4 (≈ 5.34 µM)	0.03 (≈ 0.0401 µM)	0.5 (≈ 0.668 µM)	< 0.06	0.25 (≈ 0.334 µM)
CC[C@H]1OC(=O)[C@H](C)[C@@H](O[C@H]2C[C@@](C)(OC)[C@@H](O)[C@@H](C)O2)[C@H](C)[C@@H](O[C@@H]2O[C@H](C)C[C@@H](N(C)C)[C@H]2O)[C@](C)(O)C[C@@H](C)CN(C)[C@H](C)[C@@H](O)[C@]1(C)OC	–	4 (≈ 5.24 µM)	0.03 (≈ 0.0393 µM)	1 (≈ 1.31 µM)	0.03 (≈ 0.0393 µM)	0.25 (≈ 0.328 µM)
CC[C@H]1OC(=O)[C@H](C)[C@@H](O[C@H]2C[C@@](C)(OC)[C@@H](OC)[C@@H](C)O2)[C@H](C)[C@@H](O[C@@H]2O[C@H](C)C[C@@H](N(C)C)[C@H]2O)[C@](C)(O)C[C@@H](C)CN(C)[C@H](C)[C@@H](OC)[C@]1(C)OC	8 (≈ 10.1 µM)	16 (≈ 20.2 µM)	0.25 (≈ 0.316 µM)	8 (≈ 10.1 µM)	1 (≈ 1.26 µM)	4 (≈ 5.06 µM)
CC[C@H]1OC(=O)[C@H](C)[C@@H](O[C@H]2C[C@@](C)(OC)[C@@H](OC)[C@@H](C)O2)[C@H](C)[C@@H](O[C@@H]2O[C@H](C)C[C@@H](N(C)C)[C@H]2O)[C@](C)(O)C[C@@H](C)N(C)C[C@H](C)[C@@H](OC)[C@]1(C)OC	2 (≈ 2.53 µM)	32 (≈ 40.5 µM)	0.5 (≈ 0.632 µM)	32 (≈ 40.5 µM)	4 (≈ 5.06 µM)	8 (≈ 10.1 µM)
CC[C@H]1OC(=O)[C@H](C)[C@@H](O[C@H]2C[C@@](C)(OC)[C@@H](OC)[C@@H](C)O2)[C@H](C)[C@@H](O[C@@H]2O[C@H](C)C[C@@H](N(C)C)[C@H]2O)[C@](C)(O)C[C@@H](C)N(C)C[C@H](C)[C@@H](O)[C@]1(C)O	4 (≈ 5.24 µM)	8 (≈ 10.5 µM)	0.03 (≈ 0.0393 µM)	8 (≈ 10.5 µM)	0.5 (≈ 0.655 µM)	2 (≈ 2.62 µM)
